Test results as given in patent US7410986B2, “4-6-diphenyl pyridine derivatives as antiinflammatory agents” (Bayer Aktiengesellschaft, priority 2000, dated 2008).
Structures can show the parent of a compound that is named as a salt.

Legend:
human IKK-β = biological target: T1, human IKK-β (Homo sapiens, UniProt O14920); experiment: IKK-β kinase inhibitory assay; type: biochemical; conditions: compounds of about 40 to 90% purity, read-out: In vitro activity grade (invitro, IC50)
T1 construct: A cDNA fragment encoding human IKK-β open reading frame was generated by PCR; His; made in house; host or cells: Sf21 insect cells (baculovirus); the GST-IκBα substrate was made in E. coli
T1 sequence (O14920 1-756): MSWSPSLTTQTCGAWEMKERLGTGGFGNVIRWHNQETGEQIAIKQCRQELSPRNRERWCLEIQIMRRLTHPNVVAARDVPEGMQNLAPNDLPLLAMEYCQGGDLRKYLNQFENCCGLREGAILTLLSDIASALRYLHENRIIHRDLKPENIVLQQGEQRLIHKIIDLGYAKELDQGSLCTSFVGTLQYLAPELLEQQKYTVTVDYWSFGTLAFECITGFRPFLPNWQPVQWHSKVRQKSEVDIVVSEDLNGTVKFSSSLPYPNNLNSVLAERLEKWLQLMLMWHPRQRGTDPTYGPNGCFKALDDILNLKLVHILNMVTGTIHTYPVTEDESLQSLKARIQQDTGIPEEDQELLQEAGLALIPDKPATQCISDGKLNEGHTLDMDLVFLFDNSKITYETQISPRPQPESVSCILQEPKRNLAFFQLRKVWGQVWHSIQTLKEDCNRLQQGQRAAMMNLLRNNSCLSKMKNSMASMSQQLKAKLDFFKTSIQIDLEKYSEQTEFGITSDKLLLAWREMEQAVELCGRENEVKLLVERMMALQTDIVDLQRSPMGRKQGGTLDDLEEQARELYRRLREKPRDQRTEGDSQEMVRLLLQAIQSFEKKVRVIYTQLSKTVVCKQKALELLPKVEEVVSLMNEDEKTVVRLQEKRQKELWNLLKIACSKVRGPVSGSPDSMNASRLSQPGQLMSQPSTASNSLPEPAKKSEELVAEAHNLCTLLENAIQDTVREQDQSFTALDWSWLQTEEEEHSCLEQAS
From the text: IKK-β Kinase Inhibitory Assay.
• (1) Preparation of IKK-β Kinase Protein. • A cDNA fragment encoding human IKK-β open reading frame was generated by PCR with the use of a pair of primers designed from the published sequence (Woronicz J D et al. (1997) Science 278,866-869). A template was obtained from Quickclone cDNA (Clontech) using Elongase™ Amplification kit (Life Technologies). The DNA fragments generated by PCR were gel-purified and subcloned into pBluescript. The cDNA fragment cloned in pBluescript was inserted into pcDNA3.1/His C KpnI/NotI, and transferred into pVL1393 SmaI/XbaI (Pharmingen) to construct a baculovirus transfer vector. Then the vector, together with the linearized baculovirus (BaculoGold™, Pharmingen) was used to transfect Sf21 cells (Invitrogen, San Diego, Calif.). Generated recombinant baculovirus was cloned and amplified in Sf21 cells, grown in TNM-FH insect cell medium (Life Technologies, Inc.) supplemented with 10% FCS, […] Gentamycin, 0.1% Pluronic F-68 (Life Technologies, Inc.) as suspension culture (200 ml in 1 L Erlenmeyer flask; 27° C.; 130 rpm). Sf21 cells were infected with this amplified virus with a multiplicity of infection of 5 following standard protocols (Crossen R, Gruenwald S (1997) Baculovirus Expression Vector System Instruction Manual, Pharmingen Corporation) and harvested 48 hrs. later. The cells were lysed to obtain the produced chimeric protein of IKK-β kinase fused by histidine (His-tagged IKK-beta). • (2) The Preparation of Purified GST-IκBα Fusion Proteins • An expression vector containing the nucleotide sequence encoding fusion protein of GST with amino acid residues 1 to 54 of IκBα under the control of an IPTG-inducible promoter was constructed. The expression vector was introduced in E. coli and the transformant was cultured and lysed to obtain a GST-IκBα fusion protein. Then the resulting GST-IκBα fusion protein was purified and biotinated for kinase assay. • (3) The Measurement of IKK-β Kinase Activity • The 96-well format kinase assay of IKK-β was performed to test the inhibitory activity of the compounds of the present invention. First, 5 μl of a test compound was put in the presence of 2.5% dimethyl sulfoxide (DMSO) in each well in a U-bottomed 96-well plate (Falcon). For control wells of background (BG) and total phosphorylation (TP), 5 μl of 2.5% DMSO was put. Recombinant IKK-β (final 0.6 μg/ml) and bio-GST-IκBα (1-54) (final 0.2 μM) were diluted in 25 μl of 2×kinase buffer β (40 mM Tris-HCl, pH 7.6, 40 mM MgCl2, 40 mM β-glycerophosphate, 40 mM p-nitrophenyl-phosphate, 2 mM EDTA, 40 mM creatine phosphate, 2 mM DTT, 2 mM Na3VO4, 0.2 mg/ml BSA and 0.8 mM phenylmethylsulfonyl fluoride) and transferred to the 96-well plate. Bio-GST-IκBα (1-54) in 25 μl of 2×kinase buffer β without IKK-β was transferred to BG wells. Then 20 μl of 12.5 μM ATP, 62.5 μCi/ml [γ-^33P] ATP (Amersham Pharmacia Biotech) was added and the resulting mixture was incubated for 2 hrs. at room temperature. The kinase reactions were terminated by the addition of 150 μl of termination buffer (100 mM EDTA, 1 mg/ml BSA, 0.2 mg NaN3). One handred and fifty μl of the sample was transferred to a streptavidin-coated, white MTP (Steffens Biotechniche Analysen GmbH #08114E14. FWD) to capture the biotinylated substrates. After 1 hr. of incubation, non-bound radioactivity was eliminated by washing the wells five times with 300 μl of washing buffer including 0.9% NaCl and 0.1% (w/v) Tween-20 with the use of a MW-96 plate washer (BioTec). The bound radioactivity was determined after the addition of 170 μl MicroScint-PS scintillation cocktail (Packard) using a TopCount scintillation counter. Syk Tyrosine Kinase Inhibitory Assay for Selectivity. • (1) Preparation of Syk Protein • A cDNA fragment encoding human Syk openreading frame was cloned from total RNA of human Burkitt's lymphoma B cell lines, Raji (American Type Culture Collection), with the use of RT-PCR method. […]

[1] = test system: RANTES production in response to TNF-α from A549 cells; experiment: RANTES production in response to TNF-α from A549 cells; type: cell-based, human; conditions: Homo sapiens, A549, 24 h, 100 ng/ml TNF-α, compounds of about 40 to 90% purity, read-out: Cellular activity grade (A549, IC50)

IC50 (human IKK-β) [nM]	IC50 [1] [nM]	SMILES
500 to 2000	1000 to 10000	CN1CCN(CC(=O)Nc2cccc(-c3cc(-c4ccccc4O)nc(N)c3C#N)c2)CC1 [Example 4-02]
500 to 2000	> 10000	N#Cc1c(-c2ccccc2C(=O)O)cc(-c2ccccc2O)nc1N [Example 5-05]
500 to 2000	1000 to 10000	N#Cc1c(-c2cccc(NC(=O)CN3CCN(CCO)CC3)c2)cc(-c2ccccc2O)nc1N [Example 4-08]
2000 to 10000		Nc1cc(-c2cccc(NC(=O)CNCC3CC3)c2)cc(-c2ccccc2O)n1 [Example 4-39]
< 500	1000 to 10000	N#Cc1c(-c2ccc(N3CCC(NC(=O)C(F)(F)F)C3)c(NC(=O)CNCC3CC3)c2)cc(-c2ccccc2O)nc1N (centres unmarked) [Example 4-38]
< 500	> 10000	N#Cc1c(-c2cccc(NC(=O)CNCCCO)c2)cc(-c2ccccc2O)nc1N [Example 4-20]
500 to 2000	> 10000	N#Cc1c(-c2ccc(Cl)c(NC(=O)CNCC3CC3)c2)cc(-c2ccccc2O)nc1N [Example 4-30]
< 500	> 10000	COCCNCC(=O)Nc1cc(-c2cc(-c3ccccc3O)nc(N)c2C#N)ccc1Cl [Example 4-25]
2000 to 10000	> 10000	NC(=O)c1c(-c2cccc(NC(=O)C(O)CCC(=O)O)c2)cc(-c2ccccc2O)nc1N (centres unmarked) [Example 7-2, Sodium 5-({3-[2-amino-3-(aminocarbonyl)-6-(2-hydroxyphenyl)-4-pyridinyl]-phenyl}amino)-4-hydroxy-5-oxopentanoate]
2000 to 10000	> 10000	N#Cc1c(-c2cccc(NC(=O)CCN3CCC(C(=O)O)CC3)c2)cc(-c2ccccc2O)nc1N [Example 4-28]
> 10000	> 10000	N#Cc1c(-c2ccc(OCC3CC3)c(NC(=O)CN3CCCCC3)c2)cc(-c2ccccc2O)nc1N [Example 4-35]
500 to 2000	1000 to 10000	CN1CCN(CCC(=O)Nc2cccc(-c3cc(-c4ccccc4O)nc(N)c3C#N)c2)CC1 [Example 4-10]
500 to 2000	> 10000	N#Cc1c(-c2ccc(C(=O)NCCN3CCCCC3)cc2)cc(-c2ccccc2O)nc1N [Example 6-02]
500 to 2000	1000 to 10000	N#Cc1c(-c2cccc(NC(=O)CCN3CCN(CCO)CC3)c2)cc(-c2ccccc2O)nc1N [Example 4-13]
500 to 2000	1000 to 10000	CCCNCC(=O)Nc1cccc(-c2cc(-c3ccccc3O)nc(N)c2C#N)c1 [Example 4-19]
500 to 2000	1000 to 10000	CCN1CCC(N(CC)CCC(=O)Nc2cccc(-c3cc(-c4ccccc4O)nc(N)c3C#N)c2)C1 (centres unmarked) [Example 4-16]
500 to 2000		CCNc1ccc(-c2cc(-c3c(O)cccc3OCC3CC3)nc(N)c2CO)cc1O [Example 8-1, 2-[6-amino-4-[4-(ethylamino)-3-hydroxyphenyl]-5-(hydroxymethyl)-2-pyridinyl]-3-(cycloproylmethoxy)phenol hydrochloride]
2000 to 10000		CCn1c(=O)oc2cc(-c3cc(-c4c(O)cccc4OCC4CC4)nc4c3COC(=O)N4)ccc21 [Example 8-2, 7-[2-(cyclopropylmethoxy)-6-hydroxyphenyl-5-(3-ethyl-2-oxo-2,3-dihydro-1,3-benzoxazol-6-yl)-1,4-dihydro-2H-pyrido[2,3-d][1,3]oxazin-2-one hydrochloride]
< 500		CC(=O)Nc1ccc(-c2cc(-c3c(O)cccc3OCC3CC3)nc(N)c2CO)cc1O [Example 8-3, N-{4-[2-amino-6-[2-(cyclopropylmethoxy)-6-hydroxyphenyl]-3-(hydroxymethyl)-4-pyridinyl]-2-hydroxyphenyl}acetamide hydrochloride]

The remaining lines, values behind:

SMILES	IC50 (human IKK-β) [nM]	IC50 [1] [nM]
CCN(CCO)c1ccc(-c2cc(-c3ccccc3O)nc(N)c2C#N)cc1NC(=O)CCN [Example 3-05]	500 to 2000	1000 to 10000
N#Cc1c(-c2cccc(NC(=O)[C@@H](N)CC(=O)O)c2)cc(-c2ccccc2O)nc1N [Example 2-03]	500 to 2000	> 10000
N#Cc1c(-c2ccc(N3CCC[C@H]3CO)c(NC(=O)CCN3CCCCC3)c2)cc(-c2ccccc2O)nc1N [Example 3-12]	500 to 2000	1000 to 10000
N#Cc1c(-c2cccc(NC(=O)C3CCC(=O)N3)c2)cc(-c2ccccc2O)nc1N (centres unmarked) [Example 1-05]	2000 to 10000	> 10000
CC(C)C[C@H](N)C(=O)Nc1cc(-c2cc(-c3ccccc3O)nc(N)c2C#N)ccc1N(C)Cc1ccccc1 [Example 3-15]	2000 to 10000	1000 to 10000
N#Cc1c(-c2ccc(Cl)c(NC(=O)CCN)c2)cc(-c2ccccc2O)nc1N [Example 2-13]	< 500	1000 to 10000
CN(C)c1ccc(-c2cc(-c3ccccc3O)nc(N)c2C#N)cc1NC(=O)CCN [Example 3-07]	< 500	1000 to 10000
Cc1ccc(O)c(-c2cc(-c3cccc(NC(=O)CCN4CCCCC4)c3)c(C#N)c(N)n2)c1 [Example 2-07]	2000 to 10000	> 10000
N#Cc1c(-c2ccc(Cl)c(N)c2)cc(-c2ccccc2O)nc1N [Example 2-19]	> 10000	1000 to 10000
N#Cc1c(-c2ccc(Cl)c(NC(=O)CCN3CCCCC3)c2)cc(-c2ccccc2O)nc1N [Example 2-18]	500 to 2000	> 10000
Cc1ccc(O)c(-c2cc(-c3cccc(NC(=O)C4CCC(=O)O4)c3)c(C#N)c(N)n2)c1 (centres unmarked) [Example 1-11]	> 10000	> 10000
N#Cc1c(-c2cc(NC(=O)CCN3CCCCC3)ccc2Cl)cc(-c2ccccc2O)nc1N [Example 2-10]	500 to 2000	1000 to 10000
N#Cc1c(-c2cccc(N)c2)cc(-c2ncccc2O)nc1N [Example 1-21]	2000 to 10000	1000 to 10000
CC(=O)Nc1ccc(-c2cc(-c3ccccc3O)nc(N)c2C#N)cc1O [Example 2-16]	< 500	1000 to 10000
